Results published in patent US10889607B2, “Sialic acid analogs” (Ultragenyx Pharmaceutical Inc., priority 2011, dated 2021).
Read-outs that look alike come from different tables or passages of the source.

Key:
[1] = Sialic acid/prodrug single dose PO crossover pharmacokinetics study; type: in vivo, cynomolgus monkeys; details: for peak serum concentration (Cmax): serum sialic acid, mean n=3, single 100 mg/kg PO, fasted cynomolgus monkeys; for extent of the absorption: sialic acid API vs prodrug, single 100 mg/kg PO, cynomolgus monkeys
Excerpt: Example 4. Sialic Acid/Prodrug Single Dose PO Crossover Pharmacokinetics Study in Cynomolgus Monkeys
A single oral dose crossover pharmacokinetic study of sialic acid (API) and prodrug (Compound 1—a valine ester of sialic acid as described above) was run in fasted cynomolgus monkeys (n=3). For this study, it was essential that the GI tract of the in vivo model have some similarities to human metabolism in order for the Pep Ti transporter system to be present, thus monkeys were chosen since they carry the same transporter in the gut as humans.
The 100 mg/kg dose level chosen was based on what is known for dosing of sialic acid which has passed complete toxicological evaluation and is safe up to 2,000 mg/kg NOAEL in dogs and rats. On Day 1, three female cynomolgus monkeys were dosed with 100 mg/kg sialic acid (API) and on Day 8 the same three cynomolgus monkeys were dosed with 100 mg/kg of the prodrug. Serum was collected at the following timepoints: predose, then 5 min, 15 min, 30 min, 1 hr, 2 hrs, 4 hrs, 8 hrs, 12 hrs and 24 hrs postdose. Urine samples were collected predose overnight, then at intervals 0-4 hrs, 4-8 hrs, 8-12 hrs and 12-24 hrs post dose. The data in FIG. 2A show the mean absorption values (n=3) of serum sialic acid on Days 1 and 8. The prodrug peak serum concentration is earlier (1 hr) than sialic acid API (2 hrs). […] The pharmacokinetic data in FIGS. 2B and 2C show group averages of sialic acid concentrations on Days 1 and 8.

[2] = dog, in vivo; cited from earlier work
[3] = rat, in vivo; cited from earlier work

SMILES | peak serum concentration (Cmax) [1] | extent of the absorption [1] | NOAEL [2] | NOAEL [3]
CC(=O)NC1C(O)CC(O)(C(=O)O)OC1C(O)C(O)COC(=O)C(N)C(C)C (stereo not drawn) [Compound 1, 5-Acetylamino-6-[3-(2-amino-3-methyl-butyryloxy)-1,2-dihydroxy-propyl]-2,4-dihydroxy-tetrahydro-pyran-2-carboxylic acid] | 0.857 µg/mL | similar | – | –
CC(=O)N[C@H]1[C@H]([C@H](O)[C@H](O)CO)OC(O)(C(=O)O)C[C@@H]1O (stereo partly drawn) [sialic acid, N-acetylneuraminic acid] | 1.623 µg/mL | similar | 2,000 mg/kg | 2,000 mg/kg
